Data set [1] can be described thus: Half life (t) of enzymatic phosphodiester hydrolysis of compound towards snake venom (SV-PDE) at a concentration of 4 microg. As to conditions: serpentes, snake venom phosphodiesterase (SV-PDE). It is filed as ADME.
Data set [2] is described as follows: Half life (t) of enzymatic phosphodiester hydrolysis of compound towards calf spleen (CS-PDE) at a concentration of 20 microg. In kind it is ADME, Bos taurus. As to conditions: cattle, calf spleen phosphodiesterase (CS-PDE).

Usually half-life stands for how long it takes for the measured level to halve.

Turning to `Nc1nc2c(ccn2[C@H]2C[C@H](OP(=O)(O)OC[C@H]3O[C@@H](n4ccc5c(=O)[nH]c(N)nc54)C[C@@H]3OP(=O)(O)OC[C@H]3O[C@@H](n4ccc5c(=O)[nH]c(N)nc54)C[C@@H]3OP(=O)(O)OC[C@H]3O[C@@H](n4ccc5c(=O)[nH]c(N)nc54)C[C@@H]3OP(=O)(O)OC[C@H]3O[C@@H](n4ccc5c(=O)[nH]c(N)nc54)C[C@@H]3OP(=O)(O)OC[C@H]3O[C@@H](n4cnc5c(=O)[nH]c(N)nc54)C[C@@H]3O)[C@@H](COP(=O)(O)O)O2)c(=O)[nH]1`, the results for the half-life in data set [1] and in data set [2] were 2.5 min and more than 1200 min, respectively.

As to `COP(=O)(OC[C@H]1O[C@@H](n2ccc(N)nc2=O)C[C@@H]1OP(=O)(O)OC[C@H]1O[C@@H](n2cc(I)c3c(=O)[nH]c(N)nc32)C[C@@H]1OP(=O)(O)OC[C@H]1O[C@@H](n2ccc(N)nc2=O)C[C@@H]1O)O[C@H]1C[C@H](n2cc(I)c3c(=O)[nH]c(N)nc32)O[C@@H]1COP(=O)(O)O[C@H]1C[C@H](n2ccc(N)nc2=O)O[C@@H]1COP(=O)(O)O[C@H]1C[C@H](n2cc(I)c3c(=O)[nH]c(N)nc32)O[C@@H]1COP(=O)(O)O[C@H]1C[C@H](n2ccc(N)nc2=O)O[C@@H]1COP(=O)(O)O[C@H]1C[C@H](n2cc(I)c3c(=O)[nH]c(N)nc32)O[C@@H]1COP(=O)(O)O` (some centres not stated), the half-life is 17 min in data set [1] and more than 1200 min in data set [2].

On to `COP(=O)(OC[C@H]1O[C@@H](n2ccc(N)nc2=O)C[C@@H]1OP(=O)(O)OC[C@H]1O[C@@H](n2cc(C)c3c(=O)[nH]c(N)nc32)C[C@@H]1OP(=O)(O)OC[C@H]1O[C@@H](n2ccc(N)nc2=O)C[C@@H]1O)O[C@H]1C[C@H](n2cc(C)c3c(=O)[nH]c(N)nc32)O[C@@H]1COP(=O)(O)O[C@H]1C[C@H](n2ccc(N)nc2=O)O[C@@H]1COP(=O)(O)O[C@H]1C[C@H](n2cc(C)c3c(=O)[nH]c(N)nc32)O[C@@H]1COP(=O)(O)O[C@H]1C[C@H](n2ccc(N)nc2=O)O[C@@H]1COP(=O)(O)O[C@H]1C[C@H](n2cc(C)c3c(=O)[nH]c(N)nc32)O[C@@H]1COP(=O)(O)O` (some centres not stated), for which the half-life was 16 min in data set [1] and more than 1200 min in data set [2].

As for `COP(=O)(OC[C@H]1O[C@@H](n2ccc(N)nc2=O)C[C@@H]1OP(=O)(O)OC[C@H]1O[C@@H](n2ccc3c(=O)[nH]c(N)nc32)C[C@@H]1OP(=O)(O)OC[C@H]1O[C@@H](n2ccc(N)nc2=O)C[C@@H]1O)O[C@H]1C[C@H](n2ccc3c(=O)[nH]c(N)nc32)O[C@@H]1COP(=O)(O)O[C@H]1C[C@H](n2ccc(N)nc2=O)O[C@@H]1COP(=O)(O)O[C@H]1C[C@H](n2ccc3c(=O)[nH]c(N)nc32)O[C@@H]1COP(=O)(O)O[C@H]1C[C@H](n2ccc(N)nc2=O)O[C@@H]1COP(=O)(O)O[C@H]1C[C@H](n2ccc3c(=O)[nH]c(N)nc32)O[C@@H]1COP(=O)(O)O` (some centres not stated), the half-life in data set [1] was 1.3 min; in data set [2], approximately 1000 min.

Turning to `Nc1ccn([C@H]2C[C@H](OP(=O)(O)OC[C@H]3O[C@@H](n4cnc5c(=O)[nH]c(N)nc54)C[C@@H]3OP(=O)(O)OC[C@H]3O[C@@H](n4ccc(N)nc4=O)C[C@@H]3OP(=O)(O)OC[C@H]3O[C@@H](n4cnc5c(=O)[nH]c(N)nc54)C[C@@H]3OP(=O)(O)OC[C@H]3O[C@@H](n4ccc(N)nc4=O)C[C@@H]3OP(=O)(O)OC[C@H]3O[C@@H](n4cnc5c(=O)[nH]c(N)nc54)CC3OP(=O)(O)OC[C@H]3O[C@@H](n4ccc(N)nc4=O)C[C@@H]3O)[C@@H](COP(=O)(O)O[C@H]3C[C@H](n4cnc5c(=O)[nH]c(N)nc54)O[C@@H]3COP(=O)(O)O)O2)c(=O)n1` (some centres not stated), the figures for the half-life in data set [1] and in data set [2] were 2.5 min and 82 min, respectively.

As for `Nc1nc2c(ncn2[C@H]2C[C@H](O)[C@@H](COP(=O)(O)O[C@H]3C[C@H](n4cc(I)c5c(=O)[nH]c(N)nc54)O[C@@H]3COP(=O)(O)O[C@H]3C[C@H](n4cc(I)c5c(=O)[nH]c(N)nc54)O[C@@H]3COP(=O)(O)O[C@H]3C[C@H](n4cc(I)c5c(=O)[nH]c(N)nc54)O[C@@H]3COP(=O)(O)O[C@H]3C[C@H](n4cc(I)c5c(=O)[nH]c(N)nc54)O[C@@H]3COP(=O)(O)O[C@H]3C[C@H](n4cc(I)c5c(=O)[nH]c(N)nc54)O[C@@H]3COP(=O)(O)O)O2)c(=O)[nH]1`, the figures for the half-life in data set [1] and in data set [2] were 26 min and more than 1200 min, respectively.
